Data published in US6641851B2, “Herbal laxative preparation” (The Himalaya Drug Company, priority 2001, dated 2003).

Tested on: Wistar rats
Assay: Laxative test in rats
Format: in vivo, rat
Conditions: for laxative activity: 50 mg/kg b.wt, in words
Method: Animals Wistar rats (180-200 g) of either sex were used for the study. The animals were housed in standard laboratory conditions and provided with a temperature of 22±3° C., relative humidity of 50-55% and a 12-hour light/dark cycle. Drinking water and a synthetic pelleted diet (Lipton India Ltd., Mumbal) were supplied ad libitum. The Ethical Committee of the institution approved the experimental protocol. All the animals received humane care according to the criteria outlined in the “Guide for the care and use of Laboratory Animals” prepared by the National Academy of Sciences and published by The National Institute of Heath. Laxative Test in Rats Twenty-four animals of either sex were randomly divided into 4 groups of 6 rats each. Food was withdrawn 12 hrs. before the experiment. […] The animals were then housed individually in cages lined with blotting paper and observed for 24 hrs. The total number of wet fecal produced from each group was noted [Akah P A, Oli […](4):327]. The laxative property of the one of the selected extract KP-4 was further tested to determine the laxative property in relation to the dosage administered in rats. For the purpose the rats were grouped in four groups. Group I received saline and served as control. […] The animals were then housed individually in cages lined with blotting paper and observed for 24 hrs. The total number of wet fecal produced from each group was noted.

Compound	No of Animals Responded (50 mg/Kg, compounds from KP-1B)	Percentage of Action (50 mg/Kg, compounds from KP-1B)	No. of faeces (50 mg/Kg, compounds from KP-1B)	On set of Action (50 mg/Kg, compounds from KP-1B) [min]	laxative activity (listed as C8, 50 mg/kg)	laxative activity (listed as ferulic acid, 50 mg/kg)
COc1cc(C(=O)O)ccc1O [Compound C-9, Vanillic acid]	Nil	Nil				
COc1cc(/C=C/C(=O)O)ccc1O [Compound C-8, Ferulic acid]	10/10	100	7.80 ± 0.80	179.00 ± 22.66	significant laxative action	promising activity
